Patent US8163939B2, “Ascorbic acid derivative or salt thereof, production method thereof, and cosmetic” (Seikwa Kasei Company, Limited, priority 2007, dated 2012)

Experiments:
[1] = tested on: B16 melanoma 4A5 cell; test: Whitening test: theophylline-induced melanine production in B16 melanoma 4A5 cells; format: cell-based, mouse; conditions: sample at a concentration of 100 μM or less; theophylline-induced melanine production; 3 days culture; N=4;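 note: grades: ± under 20% + 20-40% ++ 40-70% +++ 70-100% suppression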
Procedure: As a test for a whitening effect, evaluation of the action of B16 melanoma 4A5 cell on theophylline-induced melanine production was carried out on an ascorbic acid derivative of the present invention, according to the following procedure. The same evaluation was carried out also on ascorbic acid, known compounds: ascorbic acid salts, and ascorbic acid derivatives, as comparison. The results are shown in Tables 38 to 40. • (1) B16 mouse melanoma 4A5 strain was sowed onto a 48-well plate at a cell density of 2.0×10^4 cells/well. • (2) Culturing was performed for 24 hours with Dulbecco's Modified Eagle's medium (manufactured by SIGMA. Hereinafter, abbreviated as D-MEM) containing 10% fetal bovine serum (manufactured by Roshe Diagnostics). Then, it was changed to 0.2 mM theophylline and a 10% fetal bovine serum-containing D-MEM which contains a sample of given concentration. • (3) After culturing for 3 days in the co-existence of a sample, the medium was removed using an aspirator. Then, after distilled water was added, cells were broken by an ultrasonic wave. • (4) Thereafter, the amount of protein was determined using BCA protein assay kit (manufactured by PIERCE), and the produced amount of melanine was measured by an alkali solubilizing method. To the cell-destructed solution was added sodium hydroxide so as to give a final concentration of 2N and the mixture was dissolved by heating (60° C., 15 minutes), then, the absorbance at 450 nm was measured using a micro plate reader. The melanine amount was calculated from a calibration curve made using synthetic melanine (SIGMA) as a standard. The melanine amount per unit protein was calculated by dividing the melanine amount by the protein amount. • (5) The melanine production suppressing rate was calculated according to the following formula. Melanine production suppressing rate (%)=[1−(A−B)/(C−B)]×100 [wherein, A represents the melanine amount per unit protein (g/g) in adding a sample, B represents the melanine amount per unit protein (g/g) in the normal group, and C represents the melanine amount per unit protein (g/g) in the control group.]
In the following Tables, the melanine production suppressing rate in measuring a sample at a concentration of 100 μM or less is expressed as described below. The measurement was carried out at N=4.

[2] = tested on: Normal human dermal fibroblasts; test: Collagen production of human fibroblast (Sircol collagen assay, 100 μM, 48 hours); format: cell-based; conditions: cultured 48 hours; for activity at 100 µM: Homo sapiens, Fibroblast, N=4, read-out: Collagen production promoting effect (collagen production amount, % of control group); for Collagen production promoting effect (collagen production amount, % of control group): N=4
Procedure: (§1) Normal human dermal fibroblasts were regulated with a 10% (v/v) fetal bovine serum (manufactured by Roshe Diagnostics)-containing D-MEM so as to give a cell density of 2.5×10^4 cells/well, then, pre-incubation for 24 hours was performed on a 96-well plate. After the medium was removed, a sample regulated with a 5% (v/v) fetal bovine serum-containing D-MEM to a concentration of 100 μM was added to each well, then, cultured for 48 hours under 37° C. and 5% CO2. After completion of culturing, the amount of free collagen was measured using Sircol collagen assay kit (manufactured by Biocolor). The measurement was carried out at N=4.
The collagen production amount in measuring a sample at a concentration of 100 μM was compared with the control group, and the results thereof (% value when the control group is 100%) are shown in Tables 44 and 45 based on the following standard.

[3] = tested on: Normal human dermal fibroblasts; test: Collagen production of human fibroblast 2 (100 μM or 500 μM; 2, 4 and 7 days); format: cell-based; conditions: for Collagen production amount in comparison with the control group (% value when the control group is 100%): 100 μM or 500 μM (not stated which), average ± standard error, N=4
Procedure: as §1
Free collagen was measured under the same conditions as in Test Example 5 excepting that the concentration of each sample was 100 μM or 500 μM and culturing was carried out for 2 days, 4 days and 7 days. The measurement was carried out at N=4, and the average and standard error, in four test examples, of values of the collagen production amount in comparison with the control group (% value when the control group is 100%) are shown in Tables 46 and 47.

[4] = Stability Test 1: 2% aqueous solution, pH7, room temperature, 4 weeks (residual rate, odor, coloration); format: physicochemical
Procedure: Aqueous solutions (2%) of various test samples were adjusted to pH7 with a dilute sodium hydroxide aqueous solution, and charged into 50 mL screw tubes, and the tubes were sealed and stored at room temperature for 4 weeks. Thereafter, HPLC measurement were performed (using liquid chromatography manufactured by Tosoh Corp.) and the residual rate was obtained based on the peak area. The residual rate, odor(odor change) and degree of coloration were evaluated based on the following methods and standards, and the results are shown in Table 41.
◯: 80% or more and less than 90%
Δ: 60% or more and less than 80%
X: 20% or more and less than 60%
It was evaluated according to the following criterion by 10 panelists.
Based on the evaluation results, classification was conducted as shown below.
◯: total point of 10 panelists is 25 or more
Δ: total point of 10 panelists is 16 to 24
X: total point of 10 panelists is 15 or less
3: almost no change as compared with that immediately after preparation
2: coloration is observed as compared with that immediately after preparation
1: intense coloration is observed as compared with that immediately after preparation

[5] = Table 47, culturing period 2 days
[6] = Table 47, culturing period 4 days
[7] = Table 47, culturing period 7 days
[8] = storage period 2 weeks, 10 panelists
[9] = storage period 4 weeks, 10 panelists
[10] = Table 46, culturing period 2 days
[11] = Table 46, culturing period 4 days
[12] = Table 46, culturing period 7 days

O=C1OC(C(O)CO)C(OC2CCCCC2O)=C1O (centres unmarked) [compound 11, 3-O-(2-hydroxycyclohexyl) ascorbic acid]
Whitening effect (melanine production suppressing rate) [1]: + (20 to 40%:+)
activity at 100 µM [2]: 100 to 200%

CCCCOC1=C(OCC(O)CO)[C@@H]([C@@H](O)CO)OC1=O (some centres unmarked) [Example 57]
Whitening effect (melanine production suppressing rate) [1]: + (20 to 40%:+)
Collagen production promoting effect (collagen production amount, % of control group) [2]: + (100 to 200%:+)

CCCCCCCCOCC(O)COC1=C(OCC(O)CO)C(C(O)CO)OC1=O (centres unmarked) [Example 84]
Whitening effect (melanine production suppressing rate) [1]: + (20 to 40%:+)
Collagen production promoting effect (collagen production amount, % of control group) [2]: + (100 to 200%:+)
Collagen production amount in comparison with the control group (% value when the control group is 100%) [3, 5]: 135 ± 11%
Collagen production amount in comparison with the control group (% value when the control group is 100%) [3, 6]: 154 ± 8%
Collagen production amount in comparison with the control group (% value when the control group is 100%) [3, 7]: 201 ± 16%

CCCCCCCCC(O)COC1=C(O)C(=O)O[C@@H]1[C@@H](O)CO (some centres unmarked) [Example 46]
Whitening effect (melanine production suppressing rate) [1]: ++ (40 to 70%:++)
Collagen production promoting effect (collagen production amount, % of control group) [2]: + (100 to 200%:+)
Collagen production amount in comparison with the control group (% value when the control group is 100%) [3, 5]: 152 ± 6%
Collagen production amount in comparison with the control group (% value when the control group is 100%) [3, 6]: 123 ± 11%
Collagen production amount in comparison with the control group (% value when the control group is 100%) [3, 7]: 254 ± 10%

O=C1OC(C(O)CO)C(OCC(O)CO)=C1OCc1ccccc1 (centres unmarked) [Example 17, 3-O-glyceryl-2-O-benzyl ascorbic acid]
Whitening effect (melanine production suppressing rate) [1]: + (20 to 40%:+)
activity at 100 µM [2]: 100 to 200%

CCCCCCCCCCCCOCC(O)COC1=C(OCC(O)COCCCC)C(C(O)CO)OC1=O (centres unmarked) [Example 90]
Whitening effect (melanine production suppressing rate) [1]: + (20 to 40%:+)
Collagen production promoting effect (collagen production amount, % of control group) [2]: + (100 to 200%:+)

CCCCCCCCC(O)COC1=C(OCC(O)CO)[C@@H]([C@@H](O)CO)OC1=O (some centres unmarked) [Example 29, 3-O-glyceryl-2-O-(2-hydroxydecyl) ascorbic acid]
Whitening effect (melanine production suppressing rate) [1]: + (20 to 40%:+)
activity at 100 µM [2]: 100 to 200%
Collagen production amount in comparison with the control group (% value when the control group is 100%) [3, 5]: 97 ± 19%
Collagen production amount in comparison with the control group (% value when the control group is 100%) [3, 6]: 116 ± 7%
Collagen production amount in comparison with the control group (% value when the control group is 100%) [3, 7]: 138 ± 3%

CCCCOCC(O)COC1=C(O)[C@@H]([C@@H](O)CO)OC1=O (some centres unmarked) [Example 48]
Whitening effect (melanine production suppressing rate) [1]: +++ (70 to 100%:+++)
Collagen production promoting effect (collagen production amount, % of control group) [2]: + (100 to 200%:+)

O=C1OC(C(O)CO)C(OCC(O)CO)=C1O (centres unmarked) [Example 1, 3-O-glyceryl ascorbic acid]
Whitening effect (melanine production suppressing rate) [1]: + (20 to 40%:+)
Residual rate ([4]; storage period 0): ⊚ (⊚: 90% or more)
Coloration ([4]; storage period 0, 10 panelists): ◯ (◯: total point of 10 panelists is 25 or more)
Odor ([4]; storage period 0, 10 panelists): ◯ (◯: total point of 10 panelists is 25 or more)
Residual rate ([4]; storage period 2 weeks): ◯ (◯: 80% or more and less than 90%)
Coloration [4, 8]: ◯ (◯: total point of 10 panelists is 25 or more)
Odor [4, 8]: ◯ (◯: total point of 10 panelists is 25 or more)
Residual rate ([4]; storage period 4 weeks): ◯ (◯: 80% or more and less than 90%)
Coloration [4, 9]: ◯ (◯: total point of 10 panelists is 25 or more)
Odor [4, 9]: ◯ (◯: total point of 10 panelists is 25 or more)
activity at 100 µM [2]: 100 to 200%
Collagen production amount in comparison with the control group (% value when the control group is 100%) [3, 10]: 182 ± 7%
Collagen production amount in comparison with the control group (% value when the control group is 100%) [3, 11]: 209 ± 8%
Collagen production amount in comparison with the control group (% value when the control group is 100%) [3, 12]: 219 ± 29%

O=C1O[C@H]([C@@H](O)CO)C([O-])=C1OP(=O)([O-])[O-].O=C1O[C@H]([C@@H](O)CO)C([O-])=C1OP(=O)([O-])[O-].[Mg+2].[Mg+2].[Mg+2] [magnesium ascorbyl phosphate, reference compound]
Whitening effect (melanine production suppressing rate) [1]: ± (<20%:±)
Collagen production promoting effect (collagen production amount, % of control group) [2]: + (100 to 200%:+)
collagen production promoting effect over time (in words) ([3]; 100 μM or 500 μM, culturing 2, 4 and 7 days): lowers over time
Collagen production amount in comparison with the control group (% value when the control group is 100%) [3, 10]: 276 ± 9%
Collagen production amount in comparison with the control group (% value when the control group is 100%) [3, 11]: 207 ± 24%
Collagen production amount in comparison with the control group (% value when the control group is 100%) [3, 12]: 191 ± 2%

CCCCOCC(O)COC1=C(OCC)C(C(O)CO)OC1=O (centres unmarked) [Example 97]
Whitening effect (melanine production suppressing rate) [1]: + (20 to 40%:+)
Collagen production promoting effect (collagen production amount, % of control group) [2]: + (100 to 200%:+)
Collagen production amount in comparison with the control group (% value when the control group is 100%) [3, 5]: 93 ± 4%
Collagen production amount in comparison with the control group (% value when the control group is 100%) [3, 6]: 111 ± 4%
Collagen production amount in comparison with the control group (% value when the control group is 100%) [3, 7]: 139 ± 15%
